Calls of active or inactive are those of the source. The rule behind the calls is not given here.
Key:
HeLa S3 = experiment: Cytotoxicity against human HeLaS3 cells after 96 hrs by MTT assay; format: functional, cell-based; details: HeLa S3, 96 h
Oryctolagus cuniculus [1] = species: Oryctolagus cuniculus; experiment: Inhibition of rabbit skeletal muscle F-actin polymerization at 3 uM after 1 hr by SDS-PAGE assay
Oryctolagus cuniculus [2] = species: Oryctolagus cuniculus; experiment: Binding affinity to rabbit skeletal muscle actin preincubated for 30 mins followed by UV irradiation of 0.8 mW for 15 mins measured after 30 mins by TAMRA azide-based fluorescence SDS-PAGE analysis
[3] = Binding affinity to rabbit skeletal muscle actin/porcine brain tubulin preincubated for 30 mins followed by UV irradiation of 0.8 mW for 15 mins measured after 30 mins by TAMRA azide-based fluorescence SDS-PAGE analysis
Sus scrofa = species: Sus scrofa; experiment: Binding affinity to pig brain tubulin preincubated for 30 mins followed by UV irradiation of 0.8 mW for 15 mins measured after 30 mins by TAMRA azide-based fluorescence SDS-PAGE analysis
Oryctolagus cuniculus [4] = species: Oryctolagus cuniculus; experiment: Binding affinity to rabbit skeletal muscle actin preincubated for 60 mins followed by UV irradiation for 15 mins in presence of aplyronine A by SDS-PAGE analysis
[5] = Binding affinity to rabbit skeletal muscle actin/pig brain tubulin preincubated for 60 mins followed by UV irradiation for 15 mins in presence of aplyronine A by SDS-PAGE analysis

Structure (SMILES)	Activity (Oryctolagus cuniculus [2])	Activity [3]	Activity (Sus scrofa)	Activity (Oryctolagus cuniculus [4])	Activity [5]	IC50 (HeLa S3)	inhibition (Oryctolagus cuniculus [1])
COCC(C(=O)O[C@@H]1C/C=C/C=C/C(=O)O[C@H]([C@@H](C)[C@@H](O)[C@@H](C)CC[C@@H](OC(=O)[C@H](C)N(C)C)[C@H](C)[C@H](OC(C)=O)[C@H](C)CC=NOCC(=O)NCCCC[C@H](NC(=O)c2ccc(C3(C(F)(F)F)N=N3)cc2)C(=O)NCCCOCCOCCOCCCNC(=O)CCCC[C@@H]2SC[C@@H]3NC(=O)N[C@@H]32)C/C=C/[C@H](OC)C[C@H](C)C/C=C(\C)[C@@H](OC)CC[C@@H](C)[C@@H](O)[C@@H]1C)N(C)C (stereo not given in full)						1.2 nM	
C#CCNC(=O)[C@H](CCCCNC(=O)CON=CC[C@@H](C)[C@@H](OC(C)=O)[C@@H](C)[C@@H](CC[C@H](C)[C@H](O)[C@H](C)[C@@H]1C/C=C/[C@H](OC)C[C@H](C)C/C=C(\C)[C@@H](OC)CC[C@@H](C)[C@@H](O)[C@H](C)[C@H](OC(=O)C(COC)N(C)C)C/C=C/C=C/C(=O)O1)OC(=O)[C@H](C)N(C)C)NC(=O)CCC(=O)NCCCOCCOCCOCCCNC(=O)c1ccc(C2(C(F)(F)F)N=N2)cc1 (stereo not given in full)	Active	inactive	inactive			1.2 nM	Active
COCC(C(=O)O[C@@H]1C/C=C/C=C/C(=O)O[C@H]([C@@H](C)[C@@H](O)[C@@H](C)CC[C@@H](OC(=O)[C@H](C)N(C)C)[C@H](C)[C@H](OC(C)=O)[C@H](C)/C=C/N(C)C=O)C/C=C/[C@H](OC)C[C@H](C)C/C=C(\C)[C@@H](OC)CC[C@@H](C)[C@@H](O)[C@@H]1C)N(C)C (stereo not given in full)		inactive				0.01 nM	Active
C#CCNC(=O)[C@H](CCCCNC(=O)CON=CC[C@@H](C)[C@@H](OC(C)=O)[C@@H](C)[C@@H](CC[C@H](C)[C@H](O)[C@H](C)[C@@H]1C/C=C/[C@H](OC)C[C@H](C)C/C=C(\C)[C@@H](OC)CC[C@@H](C)[C@@H](O)[C@H](C)[C@H](OC(=O)C(COC)N(C)C)C/C=C/C=C/C(=O)O1)OC(=O)[C@H](C)N(C)C)NC(=O)c1ccc(C2(C(F)(F)F)N=N2)cc1 (stereo not given in full)	Active					0.76 nM	

More lines, main results first:

Activity (Oryctolagus cuniculus [2])	Activity [3]	Activity (Sus scrofa)	Activity (Oryctolagus cuniculus [4])	Activity [5]	Structure (SMILES)	IC50 (HeLa S3)	inhibition (Oryctolagus cuniculus [1])
			Active	inactive	COCC(C(=O)O[C@@H]1C/C=C/C=C/C(=O)O[C@H]([C@@H](C)[C@@H](O)[C@@H](C)CC[C@@H](OC(=O)[C@H](C)N(C)C)[C@H](C)[C@H](OC(C)=O)[C@H](C)CC=NOCC(=O)NCCCC[C@H](NC(=O)c2ccc(C3(C(F)(F)F)N=N3)cc2)C(=O)NCCCCCCNC(=O)c2ccc(-c3c4ccc(N(C)C)cc4[o+]c4cc(N(C)C)ccc34)c(C(=O)[O-])c2)C/C=C/[C@H](OC)C[C@H](C)C/C=C(\C)[C@@H](OC)CC[C@@H](C)[C@@H](O)[C@@H]1C)N(C)C (stereo not given in full)	13 nM	
	Active	Active			COCC(C(=O)O[C@@H]1C/C=C/C=C/C(=O)O[C@H]([C@@H](C)[C@@H](O)[C@@H](C)CC[C@@H](OC(=O)[C@H](C)N(C)C)[C@H](C)[C@H](OC(C)=O)[C@H](C)CC=NOCC(=O)NCCCC[C@H](NC(=O)CCC(=O)NCCCOCCOCCOCCCNC(=O)c2ccc(C3(C(F)(F)F)N=N3)cc2)C(=O)NCCCOCCOCCOCCCNC(=O)CCCC[C@@H]2SC[C@@H]3NC(=O)N[C@@H]32)C/C=C/[C@H](OC)C[C@H](C)C/C=C(\C)[C@@H](OC)CC[C@@H](C)[C@@H](O)[C@@H]1C)N(C)C (stereo not given in full)	0.54 nM	
			Active	inactive	COCC(C(=O)O[C@@H]1C/C=C/C=C/C(=O)O[C@H]([C@@H](C)[C@@H](O)[C@@H](C)CC[C@@H](OC(=O)[C@H](C)N(C)C)[C@H](C)[C@H](OC(C)=O)[C@H](C)CC=NOCC(=O)NCCCC[C@H](NC(=O)CCC(=O)NCCCOCCOCCOCCCNC(=O)c2ccc(C3(C(F)(F)F)N=N3)cc2)C(=O)NCCCCCCNC(=O)c2ccc(-c3c4ccc(N(C)C)cc4[o+]c4cc(N(C)C)ccc34)c(C(=O)[O-])c2)C/C=C/[C@H](OC)C[C@H](C)C/C=C(\C)[C@@H](OC)CC[C@@H](C)[C@@H](O)[C@@H]1C)N(C)C (stereo not given in full)	28 nM	
